Results: the CheMixHub viscosity set

Assay: xn = mol fraction of the nth substance listed

OCC(F)(F)F + O
Conditions	viscosity [mPa·s]
298 K, 101.3 kPa, x1 = 0.026	1.152
298 K, 101.3 kPa, x1 = 0.0503	1.358
298 K, 101.3 kPa, x1 = 0.075	1.528
298 K, 101.3 kPa, x1 = 0.0984	1.634
298 K, 101.3 kPa, x1 = 0.1984	1.882
298 K, 101.3 kPa, x1 = 0.3016	1.876
298 K, 101.3 kPa, x1 = 0.4012	1.819
298 K, 101.3 kPa, x1 = 0.5015	1.757
298 K, 101.3 kPa, x1 = 0.5993	1.713
298 K, 101.3 kPa, x1 = 0.6501	1.656
298 K, 101.3 kPa, x1 = 0.8029	1.651
298 K, 101.3 kPa, x1 = 0.9024	1.673
298.15 K, 100 kPa, x1 = 0.1022	1.608
298.15 K, 100 kPa, x1 = 0.2084	1.828
298.15 K, 100 kPa, x1 = 0.3227	1.802
298.15 K, 100 kPa, x1 = 0.4087	1.743
298.15 K, 100 kPa, x1 = 0.5727	1.665
298.15 K, 100 kPa, x1 = 0.7111	1.621
298.15 K, 100 kPa, x1 = 0.9104	1.64
298.15 K, 101 kPa, x1 = 0.0196	1.061
298.15 K, 101 kPa, x1 = 0.04313	1.271
298.15 K, 101 kPa, x1 = 0.07168	1.446
298.15 K, 101 kPa, x1 = 0.1072	1.642
298.15 K, 101 kPa, x1 = 0.1525	1.773
298.15 K, 101 kPa, x1 = 0.2128	1.852
298.15 K, 101 kPa, x1 = 0.296	1.865
298.15 K, 101 kPa, x1 = 0.4193	1.782
298.15 K, 101 kPa, x1 = 0.6192	1.667
303 K, 101.3 kPa, x1 = 0.026	0.999
303 K, 101.3 kPa, x1 = 0.0503	1.163
303 K, 101.3 kPa, x1 = 0.075	1.312
303 K, 101.3 kPa, x1 = 0.0984	1.395
303 K, 101.3 kPa, x1 = 0.1984	1.588
303 K, 101.3 kPa, x1 = 0.3016	1.609
303 K, 101.3 kPa, x1 = 0.4012	1.566
303 K, 101.3 kPa, x1 = 0.5015	1.523
303 K, 101.3 kPa, x1 = 0.5993	1.492
303 K, 101.3 kPa, x1 = 0.6501	1.45
303 K, 101.3 kPa, x1 = 0.8029	1.444
303 K, 101.3 kPa, x1 = 0.9024	1.468
308 K, 101.3 kPa, x1 = 0.026	0.887
308 K, 101.3 kPa, x1 = 0.0503	1.017
308 K, 101.3 kPa, x1 = 0.075	1.138
308 K, 101.3 kPa, x1 = 0.0984	1.214
308 K, 101.3 kPa, x1 = 0.1984	1.398
308 K, 101.3 kPa, x1 = 0.3016	1.406
308 K, 101.3 kPa, x1 = 0.4012	1.375
308 K, 101.3 kPa, x1 = 0.5015	1.338
308 K, 101.3 kPa, x1 = 0.5993	1.305
308 K, 101.3 kPa, x1 = 0.6501	1.284
308 K, 101.3 kPa, x1 = 0.8029	1.278
308 K, 101.3 kPa, x1 = 0.9024	1.296
313 K, 101.3 kPa, x1 = 0.026	0.791
313 K, 101.3 kPa, x1 = 0.0503	0.899
313 K, 101.3 kPa, x1 = 0.075	1.002
313 K, 101.3 kPa, x1 = 0.0984	1.065
313 K, 101.3 kPa, x1 = 0.1984	1.223
313 K, 101.3 kPa, x1 = 0.3016	1.235
313 K, 101.3 kPa, x1 = 0.4012	1.211
313 K, 101.3 kPa, x1 = 0.5015	1.179
313 K, 101.3 kPa, x1 = 0.5993	1.159
313 K, 101.3 kPa, x1 = 0.6501	1.145
313 K, 101.3 kPa, x1 = 0.8029	1.136
313 K, 101.3 kPa, x1 = 0.9024	1.152
323.15 K, 100 kPa, x1 = 0.1022	0.85
323.15 K, 100 kPa, x1 = 0.2084	0.944
323.15 K, 100 kPa, x1 = 0.3227	0.949
323.15 K, 100 kPa, x1 = 0.4087	0.94
323.15 K, 100 kPa, x1 = 0.5727	0.911
323.15 K, 100 kPa, x1 = 0.7111	0.912
323.15 K, 100 kPa, x1 = 0.9104	0.935

C1COCCO1 + CCCO
viscosity [mPa·s]
Conditions	298.15 K	303.15 K	308.15 K	313.15 K
101 kPa, x1 = 0.4	1.131	–	–	–
101.3 kPa, x1 = 0.0923	1.609	1.42	1.289	1.179
101.3 kPa, x1 = 0.122	1.499	1.332	1.209	1.1
101.3 kPa, x1 = 0.2236	1.284	1.15	1.057	0.9732
101.3 kPa, x1 = 0.2793	1.223	1.084	0.9926	0.9135
101.3 kPa, x1 = 0.3323	1.158	1.065	0.9698	0.8894
101.3 kPa, x1 = 0.3964	1.106	1.014	0.9229	0.8503
101.3 kPa, x1 = 0.4347	1.057	0.9719	0.8966	0.8243
101.3 kPa, x1 = 0.5294	1.04	0.9553	0.8788	0.8135
101.3 kPa, x1 = 0.5833	1.028	0.949	0.8777	0.8149
101.3 kPa, x1 = 0.6365	1.028	0.9503	0.8792	0.8185
101.3 kPa, x1 = 0.6538	1.033	0.9567	0.8791	0.8196
101.3 kPa, x1 = 0.7379	1.051	0.9745	0.9054	0.8374
101.3 kPa, x1 = 0.8132	1.085	0.9921	0.9184	0.8578
101.3 kPa, x1 = 0.8989	1.117	1.028	0.9533	0.887
